Data on 14 compounds can be found in ChEMBL document CHEMBL5325400 (Eur J Med Chem, 2023).

Series [1] deals with A549. Put plainly: Antiproliferative activity against human A549 cells assessed as inhibition of cell growth measured after 48 hrs by MTT assay. Particulars: A549, 48 h. The format is functional, cell-based.
The test system of the next series is A2780/Taxol. Nature of the series: Antiproliferative activity against paclitaxel resistant human A2780/Taxol cells assessed as inhibition of cell growth incubated for 48 hrs by MTT assay. The format is functional, cell-based.
Another series deals with Tubulin (Sus scrofa) (UniProt P02554+P02550). Put plainly: Inhibition of porcine brain tubulin polymerization at 10 uM measured at 1 min interval for 60 mins by fluorescence based analysis.
Chain of Tubulin (Sus scrofa) (P02550 whole entry, looked up): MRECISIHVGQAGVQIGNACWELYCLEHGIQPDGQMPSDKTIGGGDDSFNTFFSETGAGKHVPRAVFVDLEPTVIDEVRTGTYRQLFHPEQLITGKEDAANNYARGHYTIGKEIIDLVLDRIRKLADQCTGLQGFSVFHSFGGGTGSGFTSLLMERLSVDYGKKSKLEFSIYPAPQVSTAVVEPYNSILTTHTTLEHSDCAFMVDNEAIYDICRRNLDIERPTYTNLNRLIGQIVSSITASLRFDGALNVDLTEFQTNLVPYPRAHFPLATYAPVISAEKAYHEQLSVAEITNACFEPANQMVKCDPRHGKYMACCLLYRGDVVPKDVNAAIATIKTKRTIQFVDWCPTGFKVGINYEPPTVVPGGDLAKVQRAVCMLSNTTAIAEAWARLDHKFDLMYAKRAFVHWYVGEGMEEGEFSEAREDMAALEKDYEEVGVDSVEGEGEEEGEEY
Chain of Tubulin (Sus scrofa) (P02554 whole entry, looked up): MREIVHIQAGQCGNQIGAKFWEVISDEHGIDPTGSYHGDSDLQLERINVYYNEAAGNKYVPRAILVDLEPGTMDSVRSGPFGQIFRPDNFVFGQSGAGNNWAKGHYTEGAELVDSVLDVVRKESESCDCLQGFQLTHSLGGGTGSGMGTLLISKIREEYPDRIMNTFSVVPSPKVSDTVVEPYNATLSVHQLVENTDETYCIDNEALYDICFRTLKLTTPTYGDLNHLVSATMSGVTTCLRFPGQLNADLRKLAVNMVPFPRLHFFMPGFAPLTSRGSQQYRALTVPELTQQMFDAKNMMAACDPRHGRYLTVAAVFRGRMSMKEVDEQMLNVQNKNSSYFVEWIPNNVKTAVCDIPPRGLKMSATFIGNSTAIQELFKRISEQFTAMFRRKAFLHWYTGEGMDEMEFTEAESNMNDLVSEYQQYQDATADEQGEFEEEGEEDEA
A further series deals with B16-F10. Put plainly: Antiproliferative activity against mouse B16-F10 cells assessed as inhibition of cell growth measured after 48 hrs by MTT assay. The format is functional, cell-based. Particulars: B16-F10, 48 h.
Series [2] deals with A549. Put plainly: Antitumor activity against human A549 cells xenografted in BALB/c mouse assessed as tumor growth inhibition at 10 mg/kg, ip administered every other day for 25 days. Particulars: A549, 600 h, time 25 day, read-out: TGI. The format is functional. A general note: A xenograft is tissue or cells of one species grown in another, often human tumour cells in immunodeficient mice.

Series [3] has as its system A549. Nature of the series: Antitumor activity against human A549 cells xenografted in BALB/c mouse assessed as tumor volume at 10 mg/kg, ip administered every other day for 25 days. The format is functional. Particulars: time 25 day.
For series [4], the system named is A549. Nature of the series: Antitumor activity against human A549 cells xenografted in BALB/c mouse assessed as tumor weight at 10 mg/kg, ip administered every other day for 25 days. The format is functional, organism-based. Particulars: time 25.0 day.
Another series deals with HepG2. Nature of the series: Antiproliferative activity against human HepG2 cells assessed as inhibition of cell growth measured after 48 hrs by MTT assay. The format is functional, cell-based. Particulars: HepG2, 48 h. For orientation: Formazan colour is commonly taken as a measure of viable cells.
The next series deals with SK-OV-3. Put plainly: Antiproliferative activity against human SK-OV-3 cells assessed as inhibition of cell growth measured after 48 hrs by MTT assay. The format is functional, cell-based. Particulars: SK-OV-3, 48 h.
Another series concerns MDA-MB-231. Nature of the series: Antiproliferative activity against human MDA-MB-231 cells assessed as inhibition of cell growth measured after 48 hrs by MTT assay. Particulars: MDA-MB-231, 48 h. The format is functional, cell-based.
Series [5] is described as follows: Toxicity in BALB/c mouse xenografted with human A549 cells assessed as change in body weight at 10 mg/kg, ip administered every other day for 25 days. The format is organism-based. Particulars: in vivo, 600 h, time 25 day.
The subject of a further series is A2780. Nature of the series: cells. Particulars: Homo sapiens, A2780, 48 h.
For another series, the system named is HeLa. Put plainly: Antiproliferative activity against human HeLa cells assessed as inhibition of cell growth measured after 48 hrs by MTT assay. The format is functional, cell-based.
The test system of series [6] is A549. Nature of the series: Antiproliferative activity against human A549 cells expressing lentivirus RNAi VTI-96659 assessed as inhibition of cell growth measured after 48 hrs by MTT assay. The format is functional, cell-based.
Series [7] has as its system A549. Nature of the series: Antiproliferative activity against human A549 cells expressing lentivirus RNAi VTI-96658 assessed as inhibition of cell growth measured after 48 hrs by MTT assay. The format is functional, cell-based.
The test system of series [8] is A549. Put plainly: Antiproliferative activity against human A549 cells expressing lentivirus RNAi VTI-96660 assessed as inhibition of cell growth measured after 48 hrs by MTT assay. The format is functional, cell-based.

The source made the active and inactive calls. The calls are words filed in the database; no cut-off is given here.

By IC50 is commonly meant the concentration that inhibits the measured activity by half. In the case of `CC(=O)O[C@H]1C(=O)[C@@]2(C)[C@H]([C@H](OC(=O)c3ccccc3)[C@]3(O)C[C@H](OC(=O)[C@H](O)[C@@H](NC(=O)c4ccccc4)c4ccccc4)C(C)=C1C3(C)C)[C@]1(OC(C)=O)CO[C@@H]1C[C@@H]2O` [PACLITAXEL], the half-inhibitory concentration (IC50) in the series on A549 [1] is 3.8 nM; in the series on A2780/Taxol, 17900 nM; with B16-F10, > 1000 nM; with HepG2 it was 2.5 nM; in the series with SK-OV-3, 34.5 nM; with MDA-MB-231, 1.1 nM. At Tubulin (Sus scrofa), the inhibition entry is “inactive”. Besides, the inhibition in vivo at 10 mg/kg in the series on A549 [2] turned out to be 48.6%. In addition, the values for the Activity (with A549 [3]; in [5]) were 46.53% and “Non-Toxic”, respectively. Besides, the result with A549 [4] was Active.
As to `COc1cc2c(c(OC)c1OC)-c1ccc(OC)c(=O)cc1[C@@H](NC(C)=O)CC2` [COLCHICINE], the half-inhibitory concentration (IC50) with A2780 was determined as 20 nM; with A2780/Taxol, 253 nM; in the series with B16-F10, 29.2 nM; with HeLa, 33.5 nM; with HepG2, 83.7 nM; in the series with SK-OV-3, 7.2 nM. In the series on MDA-MB-231, the half-inhibitory concentration (IC50) is 67.4 nM.
As to `O=C(Nc1cccc(Nc2cc(Nc3cccc(C(F)(F)F)c3)ncn2)c1)C1CC1`, the result in the series with A549 [6], in the series with A549 [7] and in the series on A549 [8] was Active. Moreover, the IC50 came to 84.1 nM in the series with A549 [1]; 60.7 nM in the series with B16-F10; 83.4 nM in the series with HeLa; 28.5 nM in the series on HepG2; 63.2 nM with SK-OV-3; 45.3 nM in the series with MDA-MB-231. Besides, at Tubulin (Sus scrofa), the inhibition result was “Active”.
Regarding `COc1cccc(Nc2cc(Nc3cccc(NC(=O)C4CC4)c3)ncn2)c1F`, the IC50 came out at 4.8 nM in the series on A549 [1]; 181 nM with B16-F10; 45.7 nM with HeLa; 313 nM in the series on HepG2; 26.8 nM with SK-OV-3; 31.4 nM in the series with MDA-MB-231.
Consider `O=C(Nc1cccc(Nc2nc(Nc3cccc(C(F)(F)F)c3)nc3ccsc23)c1)C1CC1`, for which the IC50 in the series with A549 [1], in the series with B16-F10, in the series on HeLa, in the series with HepG2, in the series with SK-OV-3 and in the series with MDA-MB-231 was > 1000 nM throughout.
Turning to `COc1nc(Nc2cccc(NC(=O)C3CC3)c2)cc(Nc2cccc(C(F)(F)F)c2)n1`, the IC50 in the series on A549 [1], in the series on B16-F10, in the series on HeLa, with HepG2, with SK-OV-3 and in the series on MDA-MB-231 was > 1000 nM each time.
As to `COc1cccc(Nc2cc(Nc3cccc(NS(=O)(=O)C4CC4)c3)ncn2)c1`, the half-inhibitory concentration (IC50) amounted to 81.6 nM in the series on A549 [1]; 54.2 nM in the series on B16-F10; 130 nM in the series with HeLa; 284 nM in the series with HepG2; 56.8 nM in the series on SK-OV-3; 438 nM in the series with MDA-MB-231.
As to `COc1cccc(Nc2cc(Nc3cccc(NC(=O)C(C)C)c3)ncn2)c1`, the IC50 was 299 nM in the series with A549 [1]; > 1000 nM in the series with B16-F10; > 1000 nM in the series on HeLa; > 1000 nM in the series on HepG2; 41.1 nM in the series with SK-OV-3; 644 nM in the series with MDA-MB-231.
For `CCc1cccc(Nc2cc(Nc3cccc(NC(=O)C4CC4)c3)ncn2)c1`, the half-maximal inhibitory concentration (IC50) with A549 [1] came out at 23.4 nM; with B16-F10, 46.6 nM; in the series with HeLa, 3.2 nM; with HepG2 it was 314 nM; with SK-OV-3, 1.9 nM; in the series with MDA-MB-231, 3.1 nM.
Regarding `COc1cccc(Nc2cc(Nc3cccc(NC(=O)C4CCCC4)c3)ncn2)c1`, the 50% inhibitory concentration (IC50) was 198 nM with A549 [1]; > 1000 nM in the series on B16-F10; 41.5 nM in the series on HeLa; 158 nM in the series with HepG2; 9.6 nM in the series with SK-OV-3; 105 nM in the series on MDA-MB-231.
For the compound `COc1cccc(Nc2nc(Nc3cccc(NC(=O)C4CC4)c3)c3ccccc3n2)c1`, the IC50 with A549 [1], with B16-F10, with HeLa, in the series with HepG2, in the series with SK-OV-3 and in the series with MDA-MB-231 was > 1000 nM throughout.
Consider `COc1cccc(Nc2cc(Nc3cccc(C(=O)NC4CC4)c3)ncn2)c1`, for which the concentration for half-maximal inhibition (IC50) in the series with A549 [1], with B16-F10, with HeLa, in the series with HepG2, in the series with SK-OV-3 and with MDA-MB-231 was > 1000 nM each time.
Consider `O=C(Nc1cccc(Nc2cc(N3CCc4c3cccc4C(F)(F)F)ncn2)c1)C1CC1`, for which the IC50 in the series on A549 [1], in the series with B16-F10, with HeLa, with HepG2, in the series on SK-OV-3 and in the series on MDA-MB-231 was > 1000 nM in each case.
As to `CC(=O)c1cccc(Nc2cc(Nc3cccc(NC(=O)C4CC4)c3)ncn2)c1`, the IC50 in the series on A549 [1] worked out at 509 nM; with B16-F10, 167 nM; in the series with HeLa, 22.5 nM; in the series on HepG2, 127 nM; in the series on SK-OV-3, 31.6 nM; in the series with MDA-MB-231, 64.9 nM.
